Assay results reported in US12414947B2, “Use of FGFR inhibitors for treatment of idiopathic short stature” (CEDARS-SINAI MEDICAL CENTER, priority 2019, dated 2025).

Assays:
[1] = test system: Patient normal fibroblast cells; test: Cell Survival Assay (WST-1) (FIGS. 6, 7); assay type: cell-based, human
Experimental: Fibroblasts were seeded 5×10^4 cells/well (96 well format), grow in αMEM+15% for 24 hr. […] WST-1 reagent was added, 10 μl/well, 1 hr, spectrophotometry analysis. 3 wells per test sample. NC, normal control.
Assay set up as described in FIG. 6, except IGF-I (100 ng/ml), IGF2 (100 ng/ml) or FGF2 (40 ng/ml) added as indicated. Cell survival was assayed over 5 days.

[2] = Example 3: child with short stature given erdafitinib; assay type: in vivo, human; settings: six-month period, from the 10%
From the text: A child presents with short stature. […] Their height growth velocity increased resulting in a jump in height from the 10% up to the 50% for their age.

[3] = Case report: height growth of patient CC0419 during erdafitinib therapy; assay type: in vivo, human
From the text: FIG. 1 depicts a child's growth chart.
(§1) […], they underwent a biopsy for a second recurrence.

[4] = in vivo
From the text: as §1

[5] = test system: pERK1/2 and pAKT signaling in Patient normal fibroblast cells; settings: IGF-I 100 ng/ml, IGF-2 100 ng/ml; erdafitinib 0-300 nM
From the text: FIG. 4 depicts signaling effects. […] Test working hypothesis using Patient's normal fibroblast cells as the model system. Fibroblasts, grown in αMEM+15% FBS till ˜80% confluency, were serum-starve for 18 hr in αMEM+0.1% BSA.
In vitro assays, with read-outs: signaling (pERK, pAKT), proliferation/survival assays (WST-1).

[6] = test system: Patient normal fibroblasts; test: Immunoblot analysis for apoptosis markers (FIG. 5); assay type: cell-based, human
From the text: FIG. 5 depicts the effects on apoptosis.

COc1cc(OC)cc(N(CCNC(C)C)c2ccc3ncc(-c4cnn(C)c4)nc3c2)c1 [Erdafitinib, erdafitinib]
cell survival (WST-1) ([1]; 0-300 nM, 1-5 days, serum-free media, 5×10^4 cells/well): dose-dependently decreased survival
survival of erdafitinib-treated cells with growth factors (WST-1) ([1]; IGF-I 100 ng/ml, IGF2 100 ng/ml or FGF2 40 ng/ml, over 5 days): IGF-I, but not FGF2, has significant protective effects
height percentile for age [2]: 50%
total growth in height ([3]; 9-month therapy (7 mg then 5 mg orally daily) plus one month after cessation): 14.3 cm
total growth in height ([3]; 9-month therapy plus one month after cessation): 5.63 inches
height percentile ([3]; 10 months from initiation of treatment, from 15th percentile): 70 percentile
growth velocity ([3]; on therapy, from 3.653 cm/year before): 18.06 cm/year
growth velocity (percentile) ([3]; on therapy, from 40% before, wildtype germline FGFR): > 99%
height percentile ([3]; starting ~2 months into therapy, from ~15 percentile): 23 percentile
height percentile ([3]; within one month of initiating treatment, from 15th percentile, child): 48 percentile
Dexa bone scan interpretation [4]: consistent with osteoporosis
GH, random (rating) [4]: normal
IGF-1 Z-score [4]: −1.7
IGF-I SDS [4]: −1.4 SDS
IGF-II (rating) [4]: normal
IGFBP-3 (rating) [4]: normal
Metabolic panel: creatine (rating) [4]: below normal
RDW (red cell distribution width) [4]: 16.4%
Testosterone, free and total (rating) [4]: abnormally low
bone age [4]: ~14 year
bone age delay compared to CA (x-ray hand and wrist) [4]: ~2 yrs
bone age, standard deviation below the mean [4]: greater than 2 standard deviation
events that led to discontinuation [4]: scoliosis of the thoracic region, kyphosis of the upper cervical region, and hip flexion contractures
hyperphosphatemia [4]: Transient hyperphosphatemia
lumbar spine bone density, standard deviations below mean for age-matched population [4]: 3.8 standard deviations
mean bone density value for the lumbar spine (Dexa) [4]: 0.6322 gm/sq·cm
musculoskeletal problems [4]: rapid growth and kyphosis/scoliosis which required surgery
x-ray hand and wrist finding: osteochondrosis [4]: A suggestion of osteochondrosis
x-ray hand and wrist finding: periosteal reaction [4]: Periosteal reaction (distal radius, ulna, first metacarpal)
adverse events that led to dose reduction ([4]; po): musculoskeletal pain and high phosphorus levels
pERK1/2 in presence of ligands (IGF-1, IGF2) [5]: remains erdafitinib-suppressed
apoptotic markers, cleaved Caspase 3 and cleaved PARP ([6]; by 24 hrs, erdafitinib treated cells without IGF-I): detected
apoptotic markers when IGF-I was present ([6]; lysates 24 and 48 hr post-treatment, IGF-I 100 ng/ml): not detected (or significantly blunted)
